Assay results: patent publication US20200299671A1, “IMMOBILIZED MULTI-ENZYMATIC HALOGENATION SYSTEM” (priority 2019, published 2020)
Each block holds one molecule with its values, some of them ahead of it.

Tests used:
PltM [1] = biological target: T1, PltM (Pseudomonas protegens, UniProt Q4KCZ3); assay: Optimized in vitro PltM halogenation assay (PltM, SsuE, GDH), overnight overall yield by HPLC; format: biochemical; conditions: for % overall conversion (trial 1) / % overall conversion (trial 2): optimized chlorination reaction, sum of all chlorinated products; for % overall conversion (trial 1): first of two independent reactions; for % overall conversion (trial 2): second of two independent reactions; for conversion upon overnight reaction: optimized conditions
Procedure: To increase production of halogenated molecules and decrease the amount of NADPH required, the above in vitro assay was optimized by using an additional enzyme, glucose dehydrogenase (GDH). […] The overall yield of halogenation products was determined for reactions run overnight for several substrates (Table 8). Conversion of the substrate to halogenated products was monitored by HPLC at λ=275-320 nm, where the absorbance of molecules is not affected by halogenation, and quantified as fraction of reaction species (%).
(§1) The time course experiments were performed in duplicate. Compound 1 was unstable under these optimized conditions, and it was not tested. The in vitro analysis of K87A mutant was performed overnight in 100 μL reaction mixture by using the compound 11 as a substrate. Wild-type PltM was used as a positive control, and no enzyme reaction was used as a negative control. In all above reactions, the compounds were extracted with EtOAc (4×100 μL) and dried under gentle air flow.
(§2) The halogenation reaction products were analyzed by HPLC or LC-MS by injecting 10 μL of each sample. The compounds were separated by Reversed-phase HPLC at the flow rate of 0.2 mL/min by using the following program: eluent A=H2O; eluent B=MeCN; gradient=2% B for 5 min, increase to 100% B over a 30 min period, stay at 100% B for 9 min, decrease to 2% B over a 1 min period, and re-equilibrate the column at 2% B for 30 min.
(§3) For HPLC analysis, the molecules were observed by absorbance at λ=275 nm as described above. As necessary, the following mass spectrometer was operated in negative and positive modes with the following parameters: For negative mode, mass range, 80-600 m/z in profile mode; temperature, 550° C. and ion spray voltage floating, −4500 V, and for positive mode, mass range, 80-600 m/z in profile mode; temperature, 550° C. and ion spray voltage floating, 4500 V. The presence of each compound was analyzed by extracted ion chromatograph (XIC) with the expected mass ±0.05 Da for Assay 1 and Assay 2 and ±0.005 Da for Assay 3 (FIGS. 2A-C, 8-13, and 17-37; Tables 3-4 and 7).

PltM [2] = biological target: T1, PltM; format: biochemical; conditions: optimized conditions; for preference for bromination versus iodination: time course
Procedure: To increase production of halogenated molecules and decrease the amount of NADPH required, the above in vitro assay was optimized by using an additional enzyme, glucose dehydrogenase (GDH). […] Conversion of the substrate to halogenated products was monitored by HPLC at λ=275-320 nm, where the absorbance of molecules is not affected by halogenation, and quantified as fraction of reaction species (%).
as §1, with “Compound 1 was unstable under these optimized conditions, and it was not tested.” left out
To determine the halogenation preference, the kinetic parameters were obtained by the global nonlinear regression analysis of all reaction species using DynaFit software for the following halogenation mechanism:
where E, S, P1, P2 are enzyme, substrate, mono- and dihalogenated product, respectively.

PltM [3] = biological target: T1, PltM; assay: In vitro PltM halogenation assay with a single halide salt, substrate profile (Assay 1a-1d), LC-MS; format: biochemical; conditions: for iodination by PltM (products identified by LC-MS): NaI as halide source (Assay 1d); for chlorination by PltM (products identified by LC-MS): NaCl as halide source (Assay 1b)
Procedure: The halogenation assays were carried out similarly to a recently described procedure. For substrate profile determination (Assay 1), 100 μL reactions were carried out in 30 mM sodium phosphate pH 7.4. As a halide source, 200 mM of either NaF (Assay 1a), NaCl (Assay 1b), NaBr (Assay 1c), or NaI (Assay 1d) was used. To ensure that PltM is incapable of fluorinating, an additional 200 μL reaction with 300 mM NaF was run. A 200 μL reaction with 400 mM NaBr was also run to ensure no additional bromination reaction occurred. Each reaction also contained a specified substrate (0.5 mM), FAD (0.2 mM), NADPH (5 mM), PltM (5.5 μM), and SsuE (5.0 μM). The reactions were initiated by adding NADPH under N2. The reaction tubes were tightly closed to avoid contact with air. The reaction mixtures were incubated at 25° C. for 3 h prior to extraction with EtOAc (4×100 μL). The organic layer was dried by a gentle flow of air, and the residue was dissolved in MeOH to prepare 1-10 μg/mL samples for LC-MS analysis.
as §2, §3

[4] = substrate: Oc1ccc(Cl)c(O)c1; assay: purified protein, by the assay type; conditions: other: halogen Cl; labelled species converted to next chlorinated product (for 16: to Cl-16a); pH 7.4
[5] = substrate: Nc1cccc(O)c1; assay: purified protein, by the assay type; conditions: pH 7.4
[6] = substrate: Oc1cccc(O)c1; assay: purified protein, by the assay type; format: biochemical; conditions: pH 7.4
[7] = substrate: OCc1cc(O)cc(O)c1; assay: purified protein, by the assay type; format: biochemical; conditions: pH 7.4
[8] = substrate: OCc1cc(O)cc(O)c1Cl; assay: purified protein, by the assay type; format: biochemical; conditions: other: halogen Cl; labelled species converted to next chlorinated product (for 16: to Cl-16a); pH 7.4
[9] = other: halogen Br, 16/Br-16b (second mono-brominated product)
[10] = other: halogen Br, labelled species converted to next brominated product (for 16: to Br-16a)
[11] = other: halogen Cl, 16/Cl-16b (second mono-chlorinated product)
[12] = other: halogen Cl, labelled species converted to next chlorinated product (for 16: to Cl-16a)

Molecule: Oc1cccc(O)c1 [Compound 3]
- % overall conversion (trial 1) (PltM [1]; overnight): 100, 100%
- % overall conversion (trial 2) (PltM [1]; overnight): 100, 100%
- conversion upon overnight reaction (PltM [1]): 100%
- dibromination by PltM (PltM [2]): dibrominated
- preference for bromination versus iodination (PltM [2]): preference for bromination

Molecule: Cc1cc(O)cc(O)c1 [Compound 9]
- % overall conversion (trial 1) (PltM [1]; overnight): 97%
- % overall conversion (trial 2) (PltM [1]; overnight): 96%

Molecule: OCc1cc(O)cc(O)c1 [Compound 11]
- % overall conversion (trial 1) (PltM [1]; overnight): 100, 100%
- % overall conversion (trial 2) (PltM [1]; overnight): 100, 100%
- conversion upon overnight reaction (PltM [1]): 100%
- product with wild-type PltM (PltM [1]; overnight, conditions of the K87A analysis (positive control)): yields diCl-11
- bromination by PltM (products identified by LC-MS) (PltM [3]; NaBr as halide source (Assay 1c)): Mono-bromination of 11 was observed, but not dibromination
- fluorination by PltM (products identified by LC-MS) (PltM [3]; NaF as halide source (Assay 1a)): not dibromination or fluorination
- preference for bromination versus iodination (PltM [2]): for iodination

Molecule: CC(=O)c1c(O)cc(O)cc1O [Compound 15]
- % overall conversion (trial 1) (PltM [1]; overnight): 34%
- % overall conversion (trial 2) (PltM [1]; overnight): 7%

- % overall conversion (trial 1) (PltM [1]; overnight): 100, 100%
- % overall conversion (trial 2) (PltM [1]; overnight): 100, 100%
- conversion upon overnight reaction (PltM [1]): 100%
- dibromination by PltM (PltM [2]): dibrominated
- preference for bromination versus iodination (PltM [2]): preference for bromination
Molecule: Nc1cccc(O)c1 [Compound 16]

Molecule: Nc1cccc(N)c1 [Compound 18]
- % overall conversion (trial 1) (PltM [1]; overnight): 100, 100%
- % overall conversion (trial 2) (PltM [1]; overnight): 100, 100%

- halogenation by PltM (substrate profile) (PltM [3]; tested for chlorination and iodination): not observed
Molecule: N[C@@H](Cc1c[nH]c2ccccc12)C(=O)O [Compound 20, L-Trp]

Molecule: CC(C)(C)NCC(O)c1cc(O)cc(O)c1 (centres unmarked) [Compound 21, terbutaline, reference compound]
- iodination by PltM (products identified by LC-MS) (PltM [3]): both mono and di

Molecule: CC(Cc1ccc(O)cc1)NCC(O)c1cc(O)cc(O)c1 (centres unmarked) [Compound 22, fenoterol, reference compound]
- iodination by PltM (products identified by LC-MS) (PltM [3]): mono-iodinated

Molecule: Oc1ccc(C=Cc2cc(O)cc(O)c2)cc1 [Compound 23, resveratrol]
- % overall conversion (trial 1) (PltM [1]; overnight): 24%
- % overall conversion (trial 2) (PltM [1]; overnight): 20%
- chlorination by PltM (products identified by LC-MS) (PltM [3]): mono-chlorinated
- iodination by PltM (products identified by LC-MS) (PltM [3]): mono-iodinated

Molecule: catechin [Compound 24]
- chlorination by PltM (products identified by LC-MS) (PltM [3]): mono-chlorinated
- iodination by PltM (products identified by LC-MS) (PltM [3]): mono-iodinated

B1: PltM (Pseudomonas protegens Pf-5) (protein)
chain: MNQYDVIIIGSGIAGALTGAVLAKSGLNVLILDSAQHPRFSVGEAATPESGFLLRLLSKRFDIPEIAYLSHPDKIIQHVGSSACGIKLGFSFAWHQENAPSSPDHLVAPPLKVPEAHLFRQDIDYFALMIALKHGAESRQNIKIESISLNDDGVEVALSNAAPVKAAFIIDAAAQGSPLSRQLGLRTTEGLATDTCSFFTHMLNVKSYEDALAPLSRTRSPIELFKSTLHHIFEEGWLWVIPFNNHPQGTNQLCSIGFQFNNAKYRPTEAPEIEFRKLLKKYPAIGEHFKDAVNAREWIYAPRINYRSVQNVGDRFCLLPQATGFIDPLFSRGLITTFESILRLAPKVLDAARSNRWQREQFIEVERHCLNAVATNDQLVSCSYEAFSDFHLWNVWHRVWLSGSNLGSAFLQKLLHDLEHSGDARQFDAALEAVRFPGCLSLDSPAYESLFRQSCQVMQQAREQARPVAETANALHELIKEHEAELLPLGYSRISNRFILKV
- Km [4]: 0.11 ± 0.02 µM
- kcat [4]: 0.00667 s⁻¹
- kcat/Km [4]: 58300 M⁻¹ s⁻¹
- Km [5, 9]: 151 ± 20 µM
- kcat [5, 9]: 0.0367 s⁻¹
- kcat/Km [5, 9]: 250 M⁻¹ s⁻¹
- Km [5, 10]: 151 ± 20 µM
- kcat [5, 10]: 0.00783 s⁻¹
- kcat/Km [5, 10]: 51.7 M⁻¹ s⁻¹
- Km [5, 11]: 1.1 ± 0.3 µM
- kcat [5, 11]: 0.00367 s⁻¹
- kcat/Km [5, 11]: 3170 M⁻¹ s⁻¹
- Km [5, 12]: 1.1 ± 0.3 µM
- kcat [5, 12]: 0.00583 s⁻¹
- kcat/Km [5, 12]: 5170 M⁻¹ s⁻¹
- Km [6, 10]: 0.71 ± 0.2 µM
- kcat [6, 10]: 0.0317 ± 0.00167 s⁻¹
- kcat/Km [6, 10]: 45000 ± 10000 M⁻¹ s⁻¹
- Km [6, 12]: (7.6 ± 1.3) × 10^−2 μM
- kcat [6, 12]: 2.3 ± 0.1^a min^−1
- kcat/Km [6, 12]: 30 ± 5 ^ min^−1μM^−1
- Km [7, 10]: (1.1 ± 0.2) × 10^3 μM
- kcat [7, 10]: 0.004 ± 0.000333 s⁻¹
- kcat/Km [7, 10]: 3.67 ± 0.333 M⁻¹ s⁻¹
- Km [7, 12]: 8.4 ± 0.4 µM
- kcat [7, 12]: 0.0267 ± 0.00167 s⁻¹
- kcat/Km [7, 12]: 3170 ± 167 M⁻¹ s⁻¹
- Km [8]: 0.44 ± 0.02 µM
- kcat [8]: 0.003 ± 0.000167 s⁻¹
- kcat/Km [8]: 6830 ± 333 M⁻¹ s⁻¹
